Assay results taken from PubChem BioAssay AID2305 (GlaxoSmithKline (GSK), 2010).
pIC50: −log10 of the molar value.

Tested on: P. falciparum 3D7 growth, pLDH absorbance
Experiment: blood-stage malaria parasite growth potency – strain 3D7, dose response (AID 2305)

Structure (SMILES)	pIC50
COCCCNc1sc(S(=O)(=O)c2ccccc2)nc1S(=O)(=O)c1ccc(C)cc1	6.10
O=C(/C=C/c1ccc(Cl)c(Cl)c1)NCCCCCN1CC[C@H](c2c[nH]c3ccccc23)[C@H](O)C1	6.09
Oc1ccc(Cl)cc1Nc1nc(C(F)(F)F)nc2ccccc12	6.03
Nc1nccc2ccc(-c3ccc(OCc4ccccc4)cc3)cc12	6.66
CC1(C)N=C(N)N=C(N)N1c1ccc(Br)cc1	8.00
CCCCCCOc1ccc(C(=O)N[C@H]2CCN(CCCCCNC(=O)/C=C/c3ccc(Cl)c(Cl)c3)C2)cc1	6.16
CCOC(=O)N1CCN(CCCNc2c3ccccc3nc3ccccc23)CC1	6.00
CN1CCN(CCCNCc2cccc(Nc3nccc(Nc4ccc(Oc5ccccc5)cc4)n3)c2)CC1	6.12
Cc1ccc(Nc2nc3cc(N(C)c4ccnc(Nc5cccc(CCS(C)(=O)=O)c5)n4)ccc3n2C)cc1	6.47
OCC1CCN(Cc2ccc(-c3ccc(-c4nc5ccc(F)cc5[nH]4)cc3)cc2)CC1	6.08
CN1CCN(c2cccc(-c3nnc(-c4ccc(OCC(=O)NCc5cccc(C(F)(F)F)c5)c([N+](=O)[O-])c4)o3)c2)CC1	6.02
COc1cccc(-c2ccc(O)c(CNCCc3cccc(F)c3)c2)n1	6.04
COc1ccc(CNCc2ccc(-c3ccc(CNCCc4ccccc4)cn3)cc2)cn1	6.00
COc1ccccc1/C=C/C(=O)N(C)C1CCN(CCCCCNC(=O)/C=C/c2ccc(Cl)c(Cl)c2)C1 (centres undefined)	6.06
CC(C)CNCc1ccc(-c2ccc(CN(C(=O)Nc3ccccc3)C3CCN(Cc4ccccc4)CC3)cc2)cc1	6.17
Cc1ccc(CNC(=O)[C@H](Cc2ccccc2)Nc2cc(C)nc(Nc3ccccc3)n2)cc1	6.07
c1ccc2[nH]c(-c3ccc(-c4ccc(CN5CCN(c6ccncc6)CC5)cc4)cc3)nc2c1	6.80
Clc1ccc(CNc2nc(NCCc3cnc[nH]3)nc(Nc3ccc4c(c3)OCO4)n2)cc1	6.02
O=C1CCCN1CCCNCc1ccc(-c2ccc(-c3nc4ccc(C(F)(F)F)cc4[nH]3)cc2)cc1	6.24
CS(=O)(=O)CCNCc1cccc(-c2cc3c(Nc4ccc(OCc5ccccc5)cc4)ncnc3cn2)c1	6.14
N#Cc1ccc(-c2ccc(C(=O)NCCCCN3CCC(c4nc5ccccc5[nH]4)CC3)cc2)cc1	6.00
Cc1cc(N)c2cc(NC(=O)c3cccc4ccccc34)ccc2n1	6.08
N#Cc1cccc(NC(=O)c2cccc(S(=O)(=O)NC3CCN(CC4CCCCC4)C3)c2)c1 (centres undefined)	6.24
O=C(Cn1c(=O)oc2ccccc21)N1CCC(n2c(=O)n(CCCN3CCOCC3)c3ccccc32)CC1	6.11
Cn1nc(-c2cccc(CN[C@@H]3CCc4ccc(O)cc43)c2)c2cnc(NC3CCCC3)nc21	6.13

Structure (SMILES)	pIC50
COc1ccc2nccc([C@@H](O)CN3CCC(NC(=O)C(c4ccccc4C)N4CCC(Cc5ccccc5)CC4)CC3)c2c1 (some centres undefined)	6.59
O=C(Cn1c(=O)cnc2ccccc21)Nc1cccc(C(=O)Nc2cccc(C(F)(F)F)c2)c1	6.55
CCN(CC)S(=O)(=O)c1ccc(C(C)NC(=O)c2ccccc2COc2ccccc2)cc1 (centres undefined)	6.48
Cc1ccc2nc(C)cc(Nc3ccccc3O)c2c1	6.10
COc1cccc(CCNc2nc(NCc3ccccc3)c3cc(OC)c(OC)cc3n2)c1	6.49
COc1ccc2nccc([C@@H](O)CN3CCC(NCc4cc5cc([N+](=O)[O-])ccc5[nH]4)CC3)c2c1	6.92
CCN1CCN(CCCNc2c3ccc(Cl)cc3nc3ccc(OC)cc23)CC1	6.82
N#Cc1cccc(C(=O)Nc2cccc(-c3ccc(CN4CCCC4)cc3)c2)c1	6.15
Oc1ccc(CCNCCCCCCNCCc2ccc(Cl)c3ccccc23)cc1O	6.14
CCCNCc1ccc(-c2ccc(CN(C(=O)c3nn(-c4ccccc4)nc3C)C(C)CN(C)C)cc2)nc1 (centres undefined)	6.04
CC(C)CNCc1ccc(-c2cccc(CN(CCN(C)C)C(=O)CCC3CCCC3)c2)cc1	6.09
CCc1c[nH]c2c(N3CCCC3=O)cc(C(=O)N[C@@H](Cc3ccccc3)[C@H](O)CNC(C)(C)c3cccc(C(F)(F)F)c3)cc12	6.92
COc1ccc2nccc([C@@H](O)CN3CCC(NC(=O)c4ccc(-c5ccc(C#N)cc5)cc4)CC3)c2c1	6.80
O=S(=O)(NCCN1CCCC1)c1cccc(-c2cccc(CNCc3ccccc3)c2)c1	6.09
COc1cccc(CNC(=O)c2ccnc(-c3cccc(CN(C)C4CCN(C)CC4)c3)c2)c1	6.08
N#Cc1ccc(N2CCN(C(=O)c3cccc(-c4noc(C(F)(F)F)n4)c3)CC2)nc1	6.66
COc1cc(C(=O)NC2CC(C)(C)NC(C)(C)C2)ccc1-c1cc2cc(Cl)c(Cl)cc2[nH]1	6.14
Cc1ccc(-c2cnc(N)c3cc(-c4ccnc(N)n4)ccc23)cc1	6.09
COc1ccc2nccc(NN=Cc3cccc(C)n3)c2c1	6.12
CCCCCCC1(C)N=C(N)N=C(N)C1c1ccc(Cl)c(Cl)c1 (centres undefined)	6.89
O=C(Cc1cnc[nH]1)Nc1ccc(-c2ccc(-c3nc4ccccc4[nH]3)s2)cc1	5.97
COc1ccc(C(=O)CC(=O)c2ccc(OC)cc2OC)c(OC)c1	6.52
CSc1ccc2nccc(Nc3ccc(Oc4ccccc4)cc3)c2c1	6.06
N#Cc1cnc(Nc2ccc(Oc3ccccc3)cc2)nc1Nc1cccc(S(N)(=O)=O)c1	6.26
Cn1cc(CCNc2ccnc(N3CCC(c4ncc[nH]4)CC3)n2)c2ccccc21	5.92

Structure (SMILES)	pIC50
O=C(Nc1cccnc1)c1cc(C(=O)Nc2cccnc2)cc([N+](=O)[O-])c1	5.95
COc1ccc2nccc([C@@H](O)CN3CCC(NC(=O)/C(=C/c4ccccc4)c4ccc(-c5ccccc5)cc4)CC3)c2c1	5.98
COc1cc(Cc2cnc(N)nc2N)ccc1Oc1ccc(N)cc1	6.06
Fc1cc(Cl)ccc1Nc1ccnc2cc(-c3ccc(CNCCN4CCOCC4)o3)ccc12	6.55
Cc1cc(N(C)CCN(C)C)nc(Nc2ccc(Br)cc2)n1	6.10
Cc1ccccc1Nc1nc(Nc2ccccc2)c2ccccc2n1	6.00
CCOC(=O)c1ccc(COc2ccc(C)nc2)cc1	6.27
Cc1[nH]c2ccc([N+](=O)[O-])cc2c1C1=CCN(C)CC1	6.48
Cc1cc(=O)[nH]c(-n2nc(C)cc2NC(=O)CC(c2ccccc2)c2ccccc2)n1	5.96
CCCNc1nc(NCc2c(C)cccc2C)nc(NC(C)(C)C)n1	6.07
COc1cccc(OC)c1C(=O)Nc1cccc(-c2nn3ccccc3c2-c2ccnc(Nc3cccc(F)c3)n2)c1	6.12
CCc1ccc(S(=O)(=O)Nc2ccc(CCN3CCC(N4CCCCC4)CC3)cc2)cc1	6.00
O=C(CSc1n[nH]c(=O)n1Cc1ccccc1)Nc1ccccc1-c1ccccc1	6.02
Cc1cccc2[nH]c(-c3cccc(-c4cccc(CNC(C)C)c4)c3)nc12	6.47
COc1ccc(Nc2nccc(NCC(O)c3cccc(C(F)(F)F)c3)n2)cc1 (centres undefined)	6.05
Cc1cccc2[nH]c(-c3ccc(-c4cccc(CNCc5ccc(CN)cc5)c4)s3)nc12	6.21
CNC(=O)c1c(NC(=O)c2cccs2)sc2c1CCCC2	6.09
Nc1nc(NCC2CCC(CNS(=O)(=O)c3cccc4ccccc34)CC2)nc2ccccc12 (centres undefined)	6.10
Cc1nn(-c2ccccc2)c2sc(C(=O)N(CCCN(C)C)c3nc(-c4ccccc4)cs3)cc12	6.01
c1cc(CN2CCN(CCN3CCOCC3)CC2)cc(-c2ccc(-c3nc4ccccc4[nH]3)cc2)c1	6.89
COC(=O)c1cccc(CNCc2cccc(-c3ccc(-c4nc5ccccc5[nH]4)s3)c2)c1	6.31
O=C(Nc1ccc(Br)cc1)c1cc(Br)ccc1NS(=O)(=O)c1cc(C(F)(F)F)cc(C(F)(F)F)c1	6.06
COc1cc(CNC2Cc3ccccc3C2)ccc1Oc1ccc2nc[nH]c2c1	6.02
Cc1[nH]c(C)c(-c2ccc(-c3ccc(OCC(F)(F)F)cc3)nc2)c(=O)c1Cl	6.41
O=C(/C=C/c1ccc(Cl)c(Cl)c1)N1CCC(CN2[C@@H]3CC[C@H]2CC(c2c[nH]c4ccccc24)C3)CC1 (some centres undefined)	6.13

Structure (SMILES)	pIC50
O=C(CC(=O)Nc1cc(Cl)cc(Cl)c1)Nc1cc(Cl)cc(Cl)c1	6.80
CCCCCCCc1c(C)[nH]c2cccc(OC)c2c1=O	5.95
O=C(/C=C/c1ccc(Cl)c(Cl)c1)N1CCCC(CCCN2CCC(c3c[nH]c4ccccc34)CC2)C1 (centres undefined)	5.96
CCOc1cc(C(=O)NCCN2CCCCC2)ccc1-c1nc2ccc(Cl)cc2[nH]1	5.97
NCc1ccc(CNCc2ccc(-c3ccc(-c4nc5ccc(F)cc5[nH]4)cc3)cc2)cc1	6.40
CNC(=O)c1ccc2[nH]cc(C3CCN(CC4CCC(NC(=O)/C=C/c5ccccc5Cl)CC4)CC3)c2c1 (centres undefined)	6.08
Brc1cnc(NC2=NCCN2)c(Br)c1	6.47
CCCC(C)Nc1nc(C)cc(N[C@@H](CC(C)C)C(=O)NCCc2ccccc2)n1 (some centres undefined)	5.87
CCOc1ccc(C(=O)Nc2nonc2-c2ccc(OC)c(OC)c2)cc1	6.06
FC(F)(F)COc1ccc(CCNCCCCNCCc2ccc(OCC(F)(F)F)c3ccccc23)c2ccccc12	6.19
FC(F)(F)c1ccc(NC(=S)N2CCC(CCN3CCC(c4c[nH]c5ccccc45)CC3)CC2)cc1	6.05
COc1ccccc1Cc1c(C)nc2nc(N)nc(N)c2c1C	6.24
CN1CCN(c2cc(NC(=O)Nc3ccc(-c4ccncc4)c(Cl)c3)ccc2Br)CC1	6.05
Cc1ccc(NC(=O)Nc2ccc(Cl)cc2)cc1-c1cccc(C(=O)Nc2ccc(F)cc2)c1	6.13
CN(C)CCN(C)Cc1ccc(-c2ccc3c(Nc4ccc(Oc5ccccn5)cc4)ccnc3c2)o1	6.38
CN1CCN(C(C(=O)NCc2cc(Cl)cc(Cl)c2)c2ccc(NC(=O)Nc3ccccc3)cc2)CC1 (centres undefined)	6.16
COc1cccc(CC(=O)N2CCC(n3c(C)nc4ccc(C)cc43)CC2)c1	6.96
CCCNCc1ccc(-c2ccc(CN(C(=O)c3nn(-c4ccccc4)nc3C)C3CC3)cc2)nc1	6.68
COC(=O)c1cccc(CNCc2ccc(-c3cccc(-c4nc5c(C)cccc5[nH]4)c3)cc2)c1	6.51
CC1(CCCCN2CC=C(c3c[nH]c4ccccc34)CC2)C(=O)Nc2ccccc21 (centres undefined)	6.85
CCCc1cc(Cc2cnc(N)nc2N)cc(OC)c1OC	6.00
O=S1(=O)NCc2ccc(Nc3nccc(Nc4ccc5c(cnn5Cc5ccccc5)c4)n3)cc21	6.12
CC1(C)N=C(N)N=C(N)N1OCc1cc(Cl)c(CON2C(N)=NC(N)=NC2(C)C)cc1Cl	7.40
C=CCOc1ccc(-c2c(C)[nH]c(C)c(Br)c2=O)cc1	6.55
